Consider six compounds from patent publication US20120100229A1, “Treatment and Prevention of White Matter Injury with KATP Channel Activators” (Yale University, priority 2009, published 2012).

One experiment has as its system pre-oligodendrocytes. Nature of the experiment: Pre-oligodendrocyte proliferation, CyQUANT NF Cell Proliferation assay. The format is cell-based, rat. The following applies: for IC50: exposure 72-96 h, 1 nM to 100 μM, cellular DNA content fluorescence. As to the method: Purified oligodendrocyte progenitor cell cultures were prepared as described (Othman et al., 2003, Glia 44:166-172). In brief, primary rat mixed glial cell cultures were isolated from whole brains of postnatal day (P) 1 rats, dissociated into single cells, and cultured into poly-D-lysine (PDL, Sigma-Aldrich, St. Louis, Mo.) coated T75 tissue culture flasks. Plating medium consisted of Dulbecco's modified Eagle's medium (DMEM, Invitrogen, Carlsbad, Calif.) supplemented with 10% fetal bovine serum (FBS; InVitrogen, Carlsbad, Calif.), 2 mM L-glutamine, […]. Tissue cultures were maintained at 37° C. in a humidified 5% CO2 incubator, and medium was exchanged every 3 days. Once confluent (after 7-9 days), microglia were separated by mechanical shaking of flasks on a rotary shaker for 60 min at 200 rpm and removed. After addition of fresh medium, the remaining cells were allowed to recover overnight before repeating the mechanical shaking for an additional 16 h at 200 rpm to isolate oligodendrocyte progenitor cells. To ensure purity of oligodendrocyte progenitor cell cultures, the isolated cells were transferred to a tissue culture dish, from which the loosely attached oligodendrocyte progenitor cells were detached by gentle shaking after 60 min, leaving behind attached microglia and astrocytes. Oligodendrocyte progenitor cells were plated onto PDL coated 96 well plates using an automated dispenser and allowed to adhere to the plates over the next 1-2 days. This procedure yielded 98% A2B5-positive (OPC marker), and 2% MBP-positive (mature OL marker) cells. GFAP-positive (astrocyte marker) or O22A-positive (microglia marker) cells could not be detected in cultures prepared in this manner.
Cells were exposed to various KATP channel stimulators, with concentrations of compounds ranging from 1 nM to 100 μM, for 72-96 h. Pre-oligodendrocytes were cultured in 384-well plates, at a concentration of 10,000 cells per well. Cultures were washed two times with DMEM to remove any residual serum and then the respective solutions of KATP channel activators were added daily in an incubation buffer of DMEM with 0.5% FBS+10 μg/ml biotin and N2 supplement. Cells were then placed at 37° C. in a humidified atmosphere containing 5% CO2. All concentrations were tested in triplicate and each study was repeated twice.
To evaluate cell proliferation in response to KATP channel stimulators, the CyQUANT® NF Cell Proliferation assay (Invitrogen, Carlsbad, Calif.) was used according to the manufacturer's instructions. This assay measured cellular DNA content as a direct index of cell proliferation. Since cellular DNA content is highly proportional to cell number, this is a very accurate way to assess cell proliferation specifically. At the end of drug exposure, medium was removed and a stock solution of the green-fluorescent CyQUANT GR dye (prepared according to manufacturer's instructions) was added. […] Fluorescence was measured using an Envision Multilabel reader (Perkin-Elmer; Excitation: 480 nm, Emission: 530 nm).

A further experiment has as its system C57BL/6 mice. As to the kind of experiment: Hypoxia-induced periventricular white matter injury in neonatal mice. The format is in vivo, mouse. The note with it: for myelin basic protein-labeling (myelination): vs vehicle. On the procedure: The effect of diazoxide in hypoxia-induced periventricular white matter injury was assessed. C57BL/6 mice were reared in […] 10% O2 from P3 to P12. Pups were treated with daily injection of either diazoxide or vehicle, with at least eight animals in each treatment group. Mice were weighed every two days. At P12, brains were removed. Ventricle size and myelin basic protein (MBP) labeling were assessed. C57BL/6 mice were exposed to low or normal oxygen conditions from P3-P12 (Turner et al., 2003, Proc. Natl. Acad. Sci. USA 100:11718-11722). In brief, litters of pups (P3) were placed with the dam in a Plexiglas chamber, in which oxygen levels were maintained at 9.5±1.0%, O2 levels were continuously monitored using a Cameron Instrument (Ontario, Canada) dual channel oxygen monitor attached to O2 electrodes placed at each end of the chamber. Control animals were kept in room air (˜22%) outside the Plexiglas chamber. Animals were removed from the chamber daily for less than 15 min to allow for diazoxide (10 mg/kg i.p.) or vehicle administration, as well as observation of weight gain. Mice were euthanized at P12, brains were harvested and shock frozen in ice cold (−20° C.) 2-methylbutane and stored at −80° C. until assessment of ventricular size or MBP immunocytochemistry (see below). At least eight animals were studied in each treatment group. Ventricle size was determined as reported (Turner et al., 2003, Proc. Natl. Acad. Sci. USA 100:11718-11722). Animals were weighed, anesthetized, and decapitated. Brains were shock frozen in ice cold (−20° C.) 2-methylbutane and stored at −80° C. Coronal sections spanning the brain were cut in a cryostat at a thickness of 16 μm in a Zeiss cryostat. Sections were mounted onto glass slides and stained with Phoenix Blue (Thermo Scientific, Waltham, Mass.). […] Ventricular sizes were quantified using Sigma Scan Pro Image Analysis Version 5.0.0 (SPSS Inc., Chicago, Ill.). The ventricular area, outlined by the Phoenix Blue staining, was measured and numerically integrated across the thickness of the slice. […]

In the case of `CCC(C)(C)/N=C(/NC#N)Nc1cccnc1` [P 1075, (E)-1-cyano-2-tert-pentyl-3-(pyridin-3-yl)guanidine], the IC50 – broadly, the concentration that gives 50% inhibition – in the experiment on pre-oligodendrocytes (Rattus norvegicus) was 0.1 µM.

`CC(=O)N(O)[C@@H]1c2cc(C#N)ccc2OC(C)(C)[C@H]1O` [Y26763, N-((3S,4R)-6-cyano-3-hydroxy-2,2-dimethylchroman-4-yl)-N-hydroxyacetamide] returned a half-maximal inhibitory concentration (IC50) in the experiment with pre-oligodendrocytes (Rattus norvegicus) of 0.2 µM.

`CC(O)(C(=O)Nc1ccc(S(=O)(=O)c2ccccc2)cc1)C(F)(F)F` (stereo not drawn) [ZM26600, 3,3,3-trifluoro-2-hydroxy-2-methyl-N-(4-(phenylsulfonyl)phenyl) propanamide]: inhibition in the experiment with pre-oligodendrocytes was half-maximal at 2.5 µM (IC50).

For the compound `CC1=NS(=O)(=O)c2cc(Cl)ccc2N1` [diazoxide, 7-chloro-3-methyl-4H-1,2,4-benzothiadiazine 1,1-dioxide], in the experiment with pre-oligodendrocytes (Rattus norvegicus, quoted in the cell toxicity study, read-out: observed EC50 value (pre-oligodendrocyte proliferation)), the EC50 is 0.01 µM. The “myelin basic protein-labeling (myelination)” value with C57BL/6 mice (chronic hypoxia P3-P12, 10 mg/kg i.p. daily) is listed as “markedly improved”; in the experiment with C57BL/6 mice (room air, 10 mg/kg i.p. daily) it was “More myelin basic protein-labeling”. The “ventricle size (ventriculomegaly)” value in the experiment with C57BL/6 mice (hypoxia 10% O2 P3-P12, 10 mg/kg i.p. daily, p<0.05 ANOVA vs hypoxia-vehicle) is given as “not enlarged”.

The compound `CC1(C)Oc2ccc(C#N)cc2[C@@H](N2CCCC2=O)[C@@H]1O` [levcromakalim, (3S,4R)-3-hydroxy-2,2-dimethyl-4-(2-oxopyrrolidin-1-yl)chroman-6-carbonitrile] came in with an IC50 in the experiment with pre-oligodendrocytes (Rattus norvegicus) of 2.5 µM.

`CC(N/C(=N\C#N)Nc1ccncc1)C(C)(C)C` (stereo not drawn) [pinacidil, (E)-1-(3,3-dimethylbutan-2-yl)-2-cyano-3-(pyridin-4-yl)guanidine] registered an IC50 with pre-oligodendrocytes (Rattus norvegicus) of 10 µM.
